Measured values from the Deep4Chem optical property database.

Test: solvent given as SMILES

O=C1/C(=C2\Sc3ccc(S(=O)(=O)O)cc3C2=O)Sc2ccc(S(=O)(=O)O)cc21
absorption maximum (in C1COCCO1): 530 nm | absorption maximum (in CN(C)C=O): 551 nm | absorption maximum (in CO): 553 nm | absorption maximum (in CS(C)=O): 553 nm | absorption maximum (in O): 546 nm

Cc1ccsc1-c1ccc(-c2ccc(-c3sccc3C)s2)s1
absorption maximum (in CCCCCCCCCCCCCC): 382 nm

CC[N+]1(CC)CN2C(=N1)C(C(=O)O)=Cc1cc(SC)ccc12
absorption maximum (in O): 397 nm

Cc1ccc(/C=C(\c2ccccc2)c2nc3ccccc3o2)cc1
absorption maximum (in C1CCCCC1): 325 nm | absorption maximum (in CO): 330 nm

COc1ccc(-c2c3nc(c(-c4ccc(OC)cc4)c4ccc([nH]4)c(-c4ccc(OC)cc4)c4nc(c(-c5ccc(OC)cc5)c5ccc2[nH]5)C=C4N2CCOCC2)C=C3)cc1
absorption maximum (in CS(C)=O): 660 nm

Cc1ccc(C#Cc2ccc3ccc(=O)oc3c2)cc1
absorption maximum (in CC#N): 304 nm

CCCCCCCCOc1cc(/C=C/c2cc[n+](Cc3ccc(C)cc3)cc2)c(OCCCCCCCC)cc1/C=C/c1cc[n+](Cc2ccc(C)cc2)cc1
absorption maximum (in ClCCl): 490 nm

O=C(O)C1=C(C(=O)O)C2=C[C@H]3c4ccccc4[C@]2([Se]1)c1ccccc13
absorption maximum (in ClCCl): 421 nm

COc1ccc(-c2nc3c([nH]2)=C2C=C(Cl)S[C@@]2(C)[C@]2(C)SC(Cl)=CC=32)cc1
absorption maximum (in CC#N): 295 nm

N#CC1N=c2cc3c4c(cccc4c2=NC1C#N)C(c1ccccc1)=C(c1ccccc1)O3 (stereo unspecified)
absorption maximum (in ClCCl): 501 nm

CC[n+]1c(C=C2C(=O)C(C=C3N(C)c4ccc(Cl)cc4C3(C)C)=C2[O-])[se]c2ccccc21
absorption maximum (in CO): 644 nm | absorption maximum (in ClC(Cl)Cl): 655 nm | absorption maximum (in ClCCl): 659 nm

CCOC(=O)c1cc(C(=O)OCC)c2cccc(OCc3ccccc3)c2n1
absorption maximum (in CCO): 366 nm

O=S(=O)([O-])c1ccc2c(O)cc(S(=O)(=O)[O-])cc2c1
absorption maximum (in O): 295 nm

O[Si](c1c2ccccc2cc2ccccc12)(c1c2ccccc2cc2ccccc12)c1c2ccccc2cc2ccccc12
absorption maximum (in ClC(Cl)Cl): 402 nm

N#Cc1c(N2CCCCC2)cc(-c2ccc3ccc4cccc5ccc2c3c45)c2c1-c1ccccc1C2
absorption maximum (in C1CCOC1): 346 nm

COc1cccc(C2=c3c(c4ccc(C(C)(C)C)cc4c4cc(C(C)(C)C)ccc34)=[N+]3C2=C(c2ccccc2)c2c(-c4cccc(OC)c4)c4c5ccc(C(C)(C)C)cc5c5cc(C(C)(C)C)ccc5c4n2[B-]3(F)F)c1
absorption maximum (in C1CCCCC1): 680 nm | absorption maximum (in C1CCOC1): 677 nm | absorption maximum (in CC#N): 670 nm | absorption maximum (in Cc1ccccc1): 682 nm | absorption maximum (in ClCCl): 677 nm

O=Cc1cnc(-c2c3ccccc3cc3ccccc23)nc1
absorption maximum (in CCO): 381 nm | absorption maximum (in ClCCl): 384 nm

CCOC(=O)C1=C(N)n2c(=O)c3ccccc3c(=O)n2C1c1ccccc1 (stereo unspecified)
absorption maximum (in CS(C)=O): 364 nm

c1cc2ccc3[nH]c4ccc5cccc6c(c1)c2c3c4c56
absorption maximum (in ClC(Cl)Cl): 425 nm

COc1ccc2c(c1)c1cc(OC)ccc1n2-c1ccc2c(c1)-c1cc(-n3c4ccc(OC)cc4c4cc(OC)ccc43)ccc1P2(=O)c1ccccc1
absorption maximum (in Cc1ccccc1): 369 nm

O=C1C=C(Nc2ccccc2F)C(=O)c2ccccc21
absorption maximum (in CCCCCC): 442 nm | absorption maximum (in CO): 448 nm

O=P1(c2ccccc2)c2cc(N3c4ccccc4Oc4ccccc43)ccc2-c2ccc(N3c4ccccc4Oc4ccccc43)cc21
absorption maximum (in Cc1ccccc1): 418 nm

CN1C(=CC2=C([O-])C(=Cc3oc4ccccc4[n+]3C)C2=C(C#N)C#N)C(C)(C)c2ccccc21
absorption maximum (in ClC(Cl)Cl): 655 nm

COc1ccccc1-n1nc(C#N)c(N2CCCC2)n1
absorption maximum (in CC#N): 318 nm

CC(=O)c1ccc(-c2cccc3ncc(-c4ccccc4)n23)cc1
absorption maximum (in ClCCl): 358 nm

c1cc(-n2c3ccccc3c3ccccc32)c(-c2nc3ccccn3n2)c(-n2c3ccccc3c3ccccc32)c1
absorption maximum (in Cc1ccccc1): 338 nm

C(=C\c1ncc2ccccc2n1)/c1ccc(N2CCCCC2)cc1
absorption maximum (in ClCCl): 385 nm

CCOC(=O)c1c2c3c(ccc(Cl)c3c3cc4ccccc4cc13)N(C)C2=O
absorption maximum (in CC#N): 408 nm

CNc1ccc2c(c1)C(=O)c1ccccc1-2
absorption maximum (in C1CCCCC1): 474 nm | absorption maximum (in CC#N): 508 nm | absorption maximum (in CCO): 511 nm | absorption maximum (in c1ccccc1): 491 nm

C[Si]1(C)c2ccc(-c3ccc(N(c4ccccc4)c4ccccc4)cc3)cc2C=Cc2cc(-c3ccc(N(c4ccccc4)c4ccccc4)cc3)ccc21
absorption maximum (in ClCCl): 390 nm

COc1ccc2c(c1)-c1cc(OC)ccc1C2=O
absorption maximum (in C1CCCCC1): 361 nm | absorption maximum (in CC#N): 376 nm | absorption maximum (in CCO): 382 nm

CCN(CC)c1ccc2cc(/C=C/c3cccc[n+]3CCCS(=O)(=O)[O-])c(=O)oc2c1
absorption maximum (in C1CCOC1): 513 nm | absorption maximum (in CC#N): 486 nm | absorption maximum (in CC(C)=O): 530 nm | absorption maximum (in CS(C)=O): 494 nm | absorption maximum (in Cc1ccccc1): 487 nm | absorption maximum (in O): 481 nm | absorption maximum (in OCC(O)CO): 496 nm

CC(C)=CCN1C(=O)c2cccc3c2c(cc2oc(C)nc23)C1=O
absorption maximum (in CCO): 362 nm

CN(C)c1ccc(/C=C/C=C/c2ccc(C#N)cc2)cc1
absorption maximum (in CC#N): 402 nm | absorption maximum (in CCCC#N): 410 nm | absorption maximum (in CCCCCC): 400 nm | absorption maximum (in CCOCC): 400 nm

CCCCN1C(=O)c2cc(Br)c3c4c(Br)cc5c6c(cc(Br)c(c7c(Br)cc(c2c37)C1=O)c64)C(=O)N(CCCC)C5=O
absorption maximum (in ClC(Cl)Cl): 532 nm

C=CCNc1ccc2ccc3oc4cc(=O)ccc-4nc3c2c1
absorption maximum (in CC#N): 537 nm | absorption maximum (in CCO): 531 nm | absorption maximum (in ClCCl): 539 nm | absorption maximum (in O): 522 nm
